Test results taken from patent US12048689B2, “Pharmaceutical composition for preventing or treating inflammatory bowel disease acting as a functional antagonist for S1PR1 and S1PR4” (NEXTGEN BIOSCIENCE CO., LTD., priority 2022, dated 2024).
Several values for one entry are separate records, joined by “and”; a condition that tells them apart may be missing. Equal values may be shown once. Read-outs that look alike come from different tables or passages of the source.

Columns and labels:
[1] = tested on: DSS-induced colitis mice; assay: Dextran sulfate sodium (DSS)-induced colitis model, disease activity index; format: in vivo
Experimental: The effect of NXC736 for inflammatory bowel disease was evaluated using a dextran sulfate sodium (DSS)-induced colitis model. In the mouse model, inflammatory bowel disease was induced by administering DSS to mice in drinking water at a concentration of 2.5%. Treatment groups consisted of a test group administered NXC736, a positive control administered ozanimod or methotrexate (MTX), a vehicle group and a normal control, and each group had n=10. In the model in which inflammatory bowel disease was induced, NXC736, which is the compound of the present invention, was orally administered at a dose of 5 and 10 mg/kg once a day for 7 days, ozanimod as a positive control material was orally administered at 5 mg/kg once a day, and methotrexate (MTX) as a positive control material was intraperitoneally administered at 3 mg/kg three times a week.
FIG. 3 illustrates the disease activity index (DAI) of DSS-induced colitis mice and the area under the disease activity index curve (AUC) of DSS-induced colitis mice. […] The calculation criteria for DAI are shown in the following Table 1, and the DAI was evaluated on days 0, 1, 2, 3, 4, 5, 6, 7, and 8.

[2] = tested on: T cells, CD4 T cells, and CD8 T cells; assay: Suppressive effect on mouse immune cells (FACS of peripheral blood and bone marrow after oral administration); format: in vivo; settings: mice; for Cell number in bone marrow, percentage of control based on 0 time: listed as NXC7363, 3 mg/kg
Experimental: To confirm whether NXC736, which acts on the S1P receptor, also has an effect on lymphocyte reduction, the effect of NXC736 on immune cells was evaluated. After oral administration of NXC736 at 3 mg/kg/day to mice, changes in lymphocytes in the peripheral blood (PB) stream and bone marrow (BM) were classified for T cells, CD4T cells, and CD8T cells, and FACS analysis was performed at 0, 4, 8, 12, 24, and 36 hours after the administration of a test material. A cell number was measured and shown as a percentage (%) of a control based on 0 time.

[3] = tested on: T cells, CD4 T cells, and CD8 T cells; assay: Suppressive effect on rat immune cells (FACS of peripheral blood and bone marrow after oral administration); format: in vivo; settings: SD rats
Experimental: To evaluate the effect of NXC736 on rat immune cells, after oral administration of NXC736 at 10 mg/kg/day to SD rats, changes in lymphocytes in the peripheral blood (PB) stream and bone marrow (BM) were classified for T cells, CD4 T cells, and CD8 T cells, and FACS analysis was performed at 0, 4, 8, 12, 24, 36, and 48 hours after the administration of a test material. A cell number was measured and shown as a percentage (%) of a control based on 0 time, and the numbers of T cells, CD4 T cells, and CD8 T cells were measured and shown as a percentage (%) of a control based on 0 time.

[4] = Cardiovascular system in beagle dogs (telemetry heart rate, general symptoms); format: in vivo; settings: oral 12.5, 25 and 50 mg/kg
Experimental: NXC736 was orally administered to four male beagle dogs under unanesthetized and unrestrained conditions with a remote transmitter inserted. Thereafter, the effect of NXC736 on the cardiovascular system was evaluated by measuring the heart rate for four beagle dogs, and it was confirmed with the naked eye whether abnormal symptoms appeared.
In this experiment, the experimental material was administered to each of the four beagle dogs over four steps. A 0.5% MC aqueous solution, which is an excipient, was administered as a control material in the first administration step (NXC7365 at 0 mg/kg), NXC736 at 12.5 mg/kg was administered in the second administration step, NXC736 at 25 mg/kg was administered in the third administration step, and NXC736 at 50 mg/kg was administered in the fourth administration step. The 1st to 4th administrations were performed at intervals of 1 week. In addition, at 0 hours before administration of the experimental material and at 0.5 hours, 1 hour, 2 hours, 3 hours, 4 hours, 6 hours, 8 hours, 12 hours and 24 hours after administration of the test material, the beagle dog's heart rate were measured.

[5] = biological target: hERG potassium ion channels (Homo sapiens, UniProt Q12809)
hERG potassium ion channels, sequence (Q12809 whole entry): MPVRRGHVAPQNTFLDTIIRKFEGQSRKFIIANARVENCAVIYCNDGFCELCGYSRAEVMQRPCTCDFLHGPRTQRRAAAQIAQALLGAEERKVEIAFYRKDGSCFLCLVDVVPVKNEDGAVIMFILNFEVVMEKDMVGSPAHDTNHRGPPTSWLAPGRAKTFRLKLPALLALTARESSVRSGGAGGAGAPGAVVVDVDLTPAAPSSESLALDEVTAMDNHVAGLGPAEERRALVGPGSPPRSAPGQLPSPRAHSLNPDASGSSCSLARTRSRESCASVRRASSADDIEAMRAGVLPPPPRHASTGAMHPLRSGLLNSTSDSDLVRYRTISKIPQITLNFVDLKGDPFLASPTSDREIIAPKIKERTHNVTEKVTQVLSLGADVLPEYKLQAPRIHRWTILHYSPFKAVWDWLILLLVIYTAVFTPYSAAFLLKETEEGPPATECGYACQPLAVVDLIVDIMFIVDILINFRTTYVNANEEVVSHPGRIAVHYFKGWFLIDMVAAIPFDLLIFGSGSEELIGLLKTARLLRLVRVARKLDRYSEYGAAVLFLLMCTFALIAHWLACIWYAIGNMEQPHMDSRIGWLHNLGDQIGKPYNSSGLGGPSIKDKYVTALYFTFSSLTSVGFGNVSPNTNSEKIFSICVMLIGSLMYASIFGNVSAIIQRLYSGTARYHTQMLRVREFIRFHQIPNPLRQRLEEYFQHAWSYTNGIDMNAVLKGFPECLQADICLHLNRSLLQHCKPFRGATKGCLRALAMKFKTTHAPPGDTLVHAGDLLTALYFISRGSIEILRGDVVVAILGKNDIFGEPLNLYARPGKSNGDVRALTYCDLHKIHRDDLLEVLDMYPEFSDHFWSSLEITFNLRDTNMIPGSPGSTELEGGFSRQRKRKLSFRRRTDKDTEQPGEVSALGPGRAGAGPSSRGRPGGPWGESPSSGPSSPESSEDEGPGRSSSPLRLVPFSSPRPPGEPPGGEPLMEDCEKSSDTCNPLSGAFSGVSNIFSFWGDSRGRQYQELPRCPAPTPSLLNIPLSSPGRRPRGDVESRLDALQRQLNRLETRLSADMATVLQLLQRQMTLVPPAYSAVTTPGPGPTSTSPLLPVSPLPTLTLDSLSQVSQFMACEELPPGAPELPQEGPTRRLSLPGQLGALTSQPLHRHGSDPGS

[6] = oral 3 mg/kg, peripheral blood, 4 hours, 3 mg/kg

## CN(Cc1cnc2nc(N)nc(N)c2n1)c1ccc(C(=O)N[C@@H](CCC(=O)O)C(=O)O)cc1 [MTX, methotrexate, reference compound]
[1]; MTX 3 mg/kg intraperitoneally three times a week
  Disease activity index (DAI) and AUC compared to negative control (vehicle): statistically significant reduction effect

## CC(C)Oc1ccc(-c2nc(-c3cccc4c3CC[C@@H]4NCCO)no2)cc1C#N [ozanimod, reference compound]
[1]; ozanimod 5 mg/kg orally once a day
  Disease activity index (DAI) and AUC compared to negative control (vehicle): statistically significant reduction effect

## CCCCCCCCCCn1cc(CCC(N)(CO)CO)nn1 [NXC736, 2-amino-2-(2-(1-decyl-1H-1,2,3-triazol-4-yl)ethyl)propane-1,3-diol]
[2]; 3 mg/kg, 4 hours after administration
  Cell number in bone marrow, percentage of control based on 0 time: 135% and 120%
[2]; 3 mg/kg, 24 hours after administration
  Cell number in bone marrow, percentage of control based on 0 time: 131% and 118%
[2]; 3 mg/kg, reduced from 4 hours, then recovered
  Time until which the suppressive effect on T cell number was maintained to some extent: 24 h
[2]; oral 3 mg/kg, peripheral blood
  Time until which the reduction of cell number in peripheral blood was maintained: 12 h
[2]; [6]
  CD4 T cell number in peripheral blood, percentage of control based on 0 time: 16.4% and 17.6%
  CD8 T cell number in peripheral blood, percentage of control based on 0 time: 5.9% and 9.3%
  T cell number in peripheral blood, percentage of control based on 0 time: 40.6% and 41.6%
[2]; oral 3 mg/kg, peripheral blood, 36 hours
  Cell number level recovered in peripheral blood, percentage of control: 88.9%
[3]; oral 10 mg/kg, peripheral blood
  Time until which the suppressive effect on T cells was maintained: 24 h
[3]; oral, bone marrow
  Change of cell number in bone marrow: no change or a tendency to increase
[3]; oral, peripheral blood, dose-dependent (doses of the three values not given)
  Suppressive effect on number of T cells in peripheral blood: 70% and 80% and 87%
[1]; NXC736 5 mg/kg and 10 mg/kg vs ozanimod 5 mg/kg
  Clinical indicators (body weight loss, stool concentration, intestinal bleeding) compared to ozanimod: equivalent values or more
[1]; NXC736 5 mg/kg orally once a day for 7 days
  Disease activity index (DAI) and AUC compared to negative control (vehicle): statistically significant reduction effect
[1]; NXC736 10 mg/kg orally once a day for 7 days
  Disease activity index (DAI) and AUC compared to negative control (vehicle): statistically significant reduction effect
[4]
  General symptoms observed with the naked eye: no abnormal symptoms
[4]; 0 to 24 hours
  Change in heart rate: no change in heart rate
[5]
  Hill coefficient: 1.527
[5]; 1 μM
  Compensated suppression rate of hERG channel currents: 9.94±1.96%
[5]; 3 μM
  Compensated suppression rate of hERG channel currents: 13.98±4.48%
[5]; 10 μM
  Compensated suppression rate of hERG channel currents: 35.03±12.09%
[5]; 30 μM
  Compensated suppression rate of hERG channel currents: 82.62±7.31%
